Data from ChEMBL document CHEMBL1201862, “PubChem BioAssay data set” (2004).
Active and inactive are the calls of the source.

What was measured:
[1] = HPDE-C7 pancreatic duct cell viability loss – fluorescence, HTS (AID 430); type: functional, cell-based; details: Homo sapiens
Large T antigen = Large T antigen (Simian virus 40, UniProt P03070); type: functional, Betapolyomavirus macacae;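 note: Confirmatory-stage PubChem screen for compounds that inhibit SV40 T antigen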
[2] = molecular target: FAD-linked sulfhydryl oxidase ALR (Homo sapiens, UniProt P55789); assay: ALR-catalysed DTT oxidation blockers – biochemical, H2O2 detection, luminescence, cherry-pick, dose response (AID 493248)
Sequence of FAD-linked sulfhydryl oxidase ALR (P55789 whole entry): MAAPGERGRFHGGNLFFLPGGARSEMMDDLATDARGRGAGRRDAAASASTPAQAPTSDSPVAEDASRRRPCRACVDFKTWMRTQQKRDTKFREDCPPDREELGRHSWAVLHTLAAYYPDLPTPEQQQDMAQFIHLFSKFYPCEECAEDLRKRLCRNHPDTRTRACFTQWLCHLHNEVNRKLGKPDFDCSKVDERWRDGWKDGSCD

[3] = viability loss of HPDE-C7K cells – cell-based, fluorescence, HTS, primary screen (AID 431); type: functional; details: Homo sapiens
Kallikrein-7 = Kallikrein-7 (Homo sapiens, UniProt P49862); assay: Fluorescence Intensity-based biochemical primary high throughput dose response assay to identify activators of kallikrein-7 (K7) zymogen.
Sequence of Kallikrein-7 (P49862 whole entry): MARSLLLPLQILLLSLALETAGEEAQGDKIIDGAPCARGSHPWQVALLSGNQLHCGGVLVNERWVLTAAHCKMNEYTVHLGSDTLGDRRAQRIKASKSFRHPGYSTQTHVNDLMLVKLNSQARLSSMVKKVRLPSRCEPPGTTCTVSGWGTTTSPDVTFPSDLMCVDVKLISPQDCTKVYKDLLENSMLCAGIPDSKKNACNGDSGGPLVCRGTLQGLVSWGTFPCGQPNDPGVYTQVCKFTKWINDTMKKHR

[4] = molecular target: Eukaryotic translation initiation factor 4E (Mus musculus, UniProt P63073); assay: blockers of eIF4G binding by eIF4E – biochemical, TR-FRET, dose response (AID 855); type: functional;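 note: potency for disrupting eIF4E binding to eIF4GI seen as loss of FRET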
Sequence of Eukaryotic translation initiation factor 4E (P63073 whole entry): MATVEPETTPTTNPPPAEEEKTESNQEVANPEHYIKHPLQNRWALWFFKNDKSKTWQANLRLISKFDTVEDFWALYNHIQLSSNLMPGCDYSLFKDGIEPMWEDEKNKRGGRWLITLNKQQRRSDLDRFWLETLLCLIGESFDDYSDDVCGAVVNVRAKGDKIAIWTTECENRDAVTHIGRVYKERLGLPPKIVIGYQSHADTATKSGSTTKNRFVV

[5] = HIV-1 Vif–A3G interaction blockers – biochemical, TR-FRET, GST-Vif 1-94, biotin-A3G peptide, dose response retest, primary screen (AID 1117319); type: functional;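 note: TR-FRET signal of purified GST-Vif binding a biotinylated A3G peptide; inhibitors lower the FRET signal by blocking Vif and A3G binding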
Protein Tat = molecular target: T1, Protein Tat (Human immunodeficiency virus type 1 group M subtype B (isolate HXB2)(HIV-1), UniProt P04608); type: functional;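 note: tat binding to TAR RNA read out by fluorescence polarization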
T1 sequence (P04608 whole entry): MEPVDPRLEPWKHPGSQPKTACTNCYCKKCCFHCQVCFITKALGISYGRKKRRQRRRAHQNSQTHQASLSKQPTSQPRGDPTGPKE

[6] = blockers of HIV-1 envelope-mediated cell-cell fusion – cherry-pick, dose response (AID 652057); type: functional, cell-based
[7] = viability loss in CEM21 cells – cell-based, CellTiter-Glo luminescence, cherry-picked, cytotoxicity control for viral fusion inhibitor project, dose response (AID 652042); type: functional;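 note: potency for signal decrease meaning cytotoxicity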
[8] = Luminescence Cell-Based Dose Retest to Confirm Inhibitors of Cancer Stem Cells. [Related pubchem assays (depositor defined):AID2717, AID2721]; type: functional; details: Homo sapiens
[9] = viability of PTEN-deleted HCT116 cells – cell-based, HCT116 PTEN knockout, dose response (AID 1047); type: functional;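 note: HCT116 colon tumor cells with PTEN knocked out; cells exposed to compound for 60 hours before readout; potency for loss of cell viability measured by luminescence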
[10] = viability of HCT116 lacking mutant beta-catenin – cell-based, human colon tumor, dose response (AID 1045); type: functional;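 note: HCT116 colon tumor cells with beta catenin knocked out; cells exposed to compound for 60 hours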
[11] = microbe, parasite or virus in culture; type: functional; details: Mycobacterium tuberculosis
[12] = HIV-1 AD8 envelope cell-cell fusion blockers – cherry-pick, dose response (AID 652062); type: functional, cell-based;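 note: luciferase signal from cell-cell fusion driven by HIV-1 clade B AD8 Env; potency is for inhibitors of fusion seen as a drop in luminescence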
[13] = blockers of HIV-1 ZM109 envelope-driven cell-cell fusion – HeLa effector, CEM target cells, luciferase, cherry-pick, dose response (AID 652058); type: functional, cell-based;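 note: luciferase signal from HIV-1 Env mediated cell-cell fusion of effector and target cells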
[14] = Luminescence Cell-Based Dose Response HTS to Identify Inhibitors of 5'UTR Stem-Loop Driven Prion Protein mRNA Translation in H4 Neuroglioblastoma Cells. [Related pubchem assays: 1827 (Project Summary), 1813 (Primary HTS)]; type: functional
[15] = molecular target: T2, Corticotropin-releasing factor receptor 2/Corticotropin-releasing factor-binding protein (Homo sapiens, UniProt P24387+Q13324); assay: Dose Response confirmation of uHTS hits for small molecule antagonists of the CRF-binding protein and CRF-R2 receptor complex.; type: functional; details: read-out: IC50_Mean
T2 sequence (Q13324 whole entry): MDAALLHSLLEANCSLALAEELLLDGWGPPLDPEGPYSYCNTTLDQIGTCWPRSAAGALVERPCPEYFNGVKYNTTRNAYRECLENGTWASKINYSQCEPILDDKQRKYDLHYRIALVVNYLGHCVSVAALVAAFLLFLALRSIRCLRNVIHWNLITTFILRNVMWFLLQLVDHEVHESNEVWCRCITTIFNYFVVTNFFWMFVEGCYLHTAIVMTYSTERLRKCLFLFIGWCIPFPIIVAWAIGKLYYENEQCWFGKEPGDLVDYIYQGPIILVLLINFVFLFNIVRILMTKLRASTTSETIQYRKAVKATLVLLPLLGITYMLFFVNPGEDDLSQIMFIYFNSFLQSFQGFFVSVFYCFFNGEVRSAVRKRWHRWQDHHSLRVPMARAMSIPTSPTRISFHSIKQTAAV
T2 sequence (P24387 whole entry): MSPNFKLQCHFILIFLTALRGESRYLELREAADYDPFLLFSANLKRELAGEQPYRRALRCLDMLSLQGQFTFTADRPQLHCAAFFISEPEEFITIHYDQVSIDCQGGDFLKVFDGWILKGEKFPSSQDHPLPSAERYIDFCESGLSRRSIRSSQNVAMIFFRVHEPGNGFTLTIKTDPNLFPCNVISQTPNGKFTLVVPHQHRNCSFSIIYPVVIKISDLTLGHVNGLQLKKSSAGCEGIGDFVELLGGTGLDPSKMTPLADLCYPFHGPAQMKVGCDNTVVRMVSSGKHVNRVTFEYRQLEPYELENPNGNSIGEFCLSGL

[16] = molecular target: T2, Corticotropin-releasing factor receptor 2/Corticotropin-releasing factor-binding protein; assay: activators of CRF receptor 2 with binding protein – uHTS hits, confirmation (AID 602473); type: functional; details: read-out: EC50_Mean
[17] = blockers of CRF-binding protein–CRF-R2 complex – cell-based, uHTS hits, 384-well, dose response (AID 651639); type: functional, Homo sapiens; details: read-out: IC50_Mean

Sequence of Large T antigen (P03070 whole entry): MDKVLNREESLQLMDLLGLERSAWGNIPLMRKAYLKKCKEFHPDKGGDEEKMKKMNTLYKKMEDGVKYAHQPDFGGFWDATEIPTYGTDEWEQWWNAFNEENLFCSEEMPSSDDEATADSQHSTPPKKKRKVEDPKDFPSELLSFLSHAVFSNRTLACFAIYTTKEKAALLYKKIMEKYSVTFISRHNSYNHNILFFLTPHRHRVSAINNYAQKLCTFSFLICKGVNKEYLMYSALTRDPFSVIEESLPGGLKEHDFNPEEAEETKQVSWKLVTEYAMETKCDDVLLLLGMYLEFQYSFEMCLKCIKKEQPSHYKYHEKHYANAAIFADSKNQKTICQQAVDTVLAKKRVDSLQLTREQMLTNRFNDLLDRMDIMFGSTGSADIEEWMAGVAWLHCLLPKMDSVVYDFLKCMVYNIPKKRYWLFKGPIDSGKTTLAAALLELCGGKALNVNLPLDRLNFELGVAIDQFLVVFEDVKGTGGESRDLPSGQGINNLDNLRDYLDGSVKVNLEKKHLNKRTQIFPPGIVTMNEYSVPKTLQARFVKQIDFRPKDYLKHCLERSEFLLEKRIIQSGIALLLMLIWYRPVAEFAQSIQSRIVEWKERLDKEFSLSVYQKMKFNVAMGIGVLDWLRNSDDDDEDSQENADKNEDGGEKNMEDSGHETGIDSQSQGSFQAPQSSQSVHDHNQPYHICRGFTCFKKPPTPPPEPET

O=C1CC(N2CCN(c3ccc(O)cc3)CC2)C(=O)N1Cc1cccs1 (centres undefined)
EC50 [1]: 6.78 µM (active)
IC50 (Large T antigen): 5.41 µM (active)
AC50 [2]: 123 nM (active)
EC50 [3]: 12 µM (active)

O=S(=O)(c1ccc(-c2cn3ccccc3n2)cc1)N1CCOCC1
EC50 (Kallikrein-7): > 69.5 µM (inactive)

CN(C)S(=O)(=O)[n+]1ccn(C)c1.c1ccc([B-](c2ccccc2)(c2ccccc2)c2ccccc2)cc1
EC50 [1]: 2.68 µM (active)
EC50 [3]: 1.77 µM (active)
IC50 [4]: 15.7 µM (active)

COc1ccc(S(=O)(=O)Nc2ccc3c(c2)OCO3)cc1C
IC50 [5]: > 100 µM (active)

COC(=O)C1=C(C)NC(=O)/C1=C\c1cccs1
IC50 (Protein Tat): > 100 µM (active)
IC50 [5]: > 100 µM (active)

COc1ccc2c(C)nc(Nc3nc(C)c(C)c(O)n3)nc2c1
AC50 [6]: 10.3 µM (active)
AC50 [7]: 7.32 µM (active)
AC50 [8]: 6.84 µM (active)
EC50 [9]: 5.4 µM (active)
EC50 [10]: 4.69 µM (active)
CC50 [11]: 7.44 µM (active)
AC50 [12]: 8.79 µM (active)
AC50 [13]: 2.84 µM (active)
EC50 [14]: > 120 µM (not active)

CCOC(=O)c1ccc(NC(=O)CSCc2ccco2)cc1
IC50 (Protein Tat): 81.6 µM (inconclusive)
IC50 [5]: > 73.7 µM (active)

O=C(Nc1cccc(F)c1)c1coc(=O)c(Br)c1
IC50 [15]: 9.89 µM (active)
EC50 [16]: > 53 µM (inactive)
IC50 [17]: 12.4 µM (active)

O=C(Nc1ccc(NC(=O)c2ccccc2O)cc1)Nc1ccc(F)cc1F
EC50 (Kallikrein-7): 9.78 µM (active)

Cc1cc([N+](=O)[O-])ccc1NCc1ccc2c(c1)OCCO2
IC50 [15]: 30.1 µM (active)
EC50 [16]: > 53 µM (inactive)
IC50 [17]: 19.9 µM (active)
